Experimental data taken from ChEMBL document CHEMBL1121724 (J Med Chem, 1981).

Each compound was assayed on Thromboxane-A synthase (Oryctolagus cuniculus) (assay: not given). Conditions: at 100 µM.

inhibition [%]	SMILES
16.8	c1ccnnc1
8.9	c1cn[nH]c1
17.3	c1cscn1
11	c1ncncn1

What follows are compounds tested against T1, Thromboxane-A synthase (Homo sapiens) (UniProt P24557) (assay: Inhibition of Thromboxane synthetase at 100 µM). Conditions: not given.
T1 sequence (whole entry): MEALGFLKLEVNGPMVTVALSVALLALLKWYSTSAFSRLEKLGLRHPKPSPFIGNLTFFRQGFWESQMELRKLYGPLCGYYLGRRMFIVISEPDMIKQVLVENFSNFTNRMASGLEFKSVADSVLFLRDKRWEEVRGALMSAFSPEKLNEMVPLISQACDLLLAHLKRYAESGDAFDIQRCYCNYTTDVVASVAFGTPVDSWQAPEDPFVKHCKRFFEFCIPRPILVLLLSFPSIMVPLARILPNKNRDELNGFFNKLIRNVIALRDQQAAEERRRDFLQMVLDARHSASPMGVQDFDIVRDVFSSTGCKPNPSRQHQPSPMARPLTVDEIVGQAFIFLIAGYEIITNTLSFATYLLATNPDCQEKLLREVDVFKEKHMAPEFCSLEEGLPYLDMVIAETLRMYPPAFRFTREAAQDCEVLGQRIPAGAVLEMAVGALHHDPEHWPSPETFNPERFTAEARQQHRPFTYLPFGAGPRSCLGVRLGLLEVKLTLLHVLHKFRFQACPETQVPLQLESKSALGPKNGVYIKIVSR

inhibition [%]	SMILES
12	c1cncnc1

The compounds below were run against Thromboxane-A synthase (Oryctolagus cuniculus) (assay: Inhibitory activity against Thromboxane synthetase). Conditions: not given.

SMILES	IC50 [nM]
C/C(=C\c1ccc(C(C)c2cccnc2)cc1)C(=O)O (stereo not drawn)	25
C/C(=C\c1ccc(Cn2ccnc2)cc1)C(=O)O	4
C/C(=C\C(=O)O)c1ccc(Cc2cccnc2)cc1	56
C/C(=C\C(=O)O)c1ccc(Cc2cccnc2)c(C)c1	18
C/C(=C/c1ccc(Cc2cccnc2)cc1)C(=O)O	3
CC/C(=C\c1ccc(Cc2cccnc2)cc1)C(=O)O	7
O=C(O)/C=C/c1ccc(Cc2cccnc2)cc1	10
C/C(=C\c1ccc(Cc2cccnc2)s1)C(=O)O	12
O=C(O)/C(Br)=C/c1ccc(Cc2cccnc2)cc1	5
CC(Cc1ccc(Cc2cccnc2)cc1)C(=O)O (stereo not drawn)	20

Next, values leading:

IC50 [nM]	SMILES
> 1000	O=C(O)CCCCn1ccnc1
47	O=C(O)/C=C/c1ccc(Cc2cccnc2)s1
500	O=C(O)CCCCc1cccnc1
> 1000	O=C(O)CCCCCc1ccncc1
68	O=C(O)CCCCCCc1cccnc1
> 1000	O=C(O)CCCCCn1ccnc1
> 1000	O=C(O)CCCCc1ccncc1
> 1000	C/C(=C\c1ccc(Cc2ccncc2)cc1)C(=O)O
86	O=C(O)CCCCCc1cccnc1
210	O=C(O)CCc1ccc(Cc2cccnc2)cc1
> 1000	O=C(O)CCCCCCc1ccncc1
> 1000	O=C(O)CCCCCCCc1ccncc1
76	O=C(O)CCCCCCCc1cccnc1
